Drawing on PubChem BioAssay (NCI), this text covers TGI for 12 molecules.

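Test compounds were applied to cells in 96-well plates for 48 hours at 5 doses. The concentration for full growth arrest is given as TGI.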

Among the test systems are DU-145 prostate; KM12 colon; LOX IMVI melanoma; M14 melanoma; MDA-MB-231 breast; NCI-H226 lung; SF-295 CNS; SF-539 CNS; SNB-75 CNS; SW-620 colon.
What all share (assay): inhibition of tumour cell growth, NCI panel, 48 h

Take `CC1(C)OC2COC3([C@@H]4OC(C)(C)O[C@@H]4CO)OC(C)(C)OC3C2O1` (stereo not given in full): the TGI in the assay with DU-145 prostate, in the assay on KM12 colon, in the assay with LOX IMVI melanoma, with M14 melanoma, with MDA-MB-231 breast and in the assay with NCI-H226 lung was more than 100 µM in each case. The TGI in the assay with SF-295 CNS, in the assay on SF-539 CNS, with SNB-75 CNS and in the assay on SW-620 colon was more than 100 µM each time.
In the case of `CCN(CCCl)c1cc(CN(C)C)cc(NC(=O)c2ccc(C(=O)Nc3cccc(CN(C)C)c3)cc2)c1`, the TGI is 42.6 µM in the assay on DU-145 prostate; 3.69 µM in the assay with KM12 colon; 0.569 µM in the assay on LOX IMVI melanoma; 17.7 µM with M14 melanoma; more than 100 µM with MDA-MB-231 breast; 17.2 µM with NCI-H226 lung. Further, the TGI in the assay on SF-295 CNS amounted to 13.2 µM; in the assay with SF-539 CNS it was 2.99 µM; in the assay with SNB-75 CNS, 3.18 µM; in the assay on SW-620 colon, 0.75 µM.
Turning to `CCOC(=O)C1CCC(=O)N1C(=O)c1ccccc1Cl` (stereo not given), the TGI in the assay with DU-145 prostate, in the assay with KM12 colon, in the assay on LOX IMVI melanoma, with M14 melanoma, with MDA-MB-231 breast and in the assay with NCI-H226 lung was more than 100 µM throughout. For the same molecule, the TGI in the assay with SF-295 CNS, in the assay with SF-539 CNS, in the assay on SNB-75 CNS and in the assay with SW-620 colon was more than 100 µM in each case.
For `CCOC(=O)c1ccc(Nc2nc3ccc(C(F)(F)F)cc3nc2C(=O)OCC)cc1`, the TGI in the assay with DU-145 prostate, in the assay on KM12 colon, in the assay with LOX IMVI melanoma, in the assay with M14 melanoma, with MDA-MB-231 breast and in the assay on NCI-H226 lung was more than 100 µM throughout. Further, the TGI with SF-295 CNS, in the assay with SF-539 CNS, with SNB-75 CNS and in the assay with SW-620 colon was more than 100 µM throughout.
On to `COc1ccc(C2c3cc4c(cc3OC(NCCO)C2C)OCO4)cc1` (stereo not given), for which the TGI was more than 100 µM with DU-145 prostate; more than 100 µM in the assay on KM12 colon; 68.7 µM in the assay on LOX IMVI melanoma; 84.6 µM in the assay with M14 melanoma; 63.3 µM with MDA-MB-231 breast; 90.2 µM in the assay on NCI-H226 lung. Further, the TGI with SF-295 CNS is 89.1 µM; with SF-539 CNS, 40.5 µM; in the assay on SNB-75 CNS it was 69.5 µM; in the assay with SW-620 colon, more than 100 µM.
As for `Clc1ccc(/C(=C\c2ccccc2)Cn2ccnc2)cc1`, the TGI was found to be 58.3 µM in the assay on DU-145 prostate; 20.7 µM in the assay on KM12 colon; 22.9 µM in the assay on LOX IMVI melanoma; 39.4 µM in the assay with M14 melanoma; 26.8 µM in the assay on MDA-MB-231 breast; 33.1 µM in the assay on NCI-H226 lung. Besides, the TGI in the assay with SF-295 CNS was 49.4 µM; in the assay on SF-539 CNS, 31.5 µM; in the assay with SNB-75 CNS, 59.4 µM; with SW-620 colon, more than 100 µM.
`COC1C(O)C(O[C@H]2CC[C@@]3(C)C(CC[C@@H]4[C@@H]3CC[C@]3(C)[C@@H](C(C)OC5OC(CO)C(O)C(O)C5O)CC[C@]43O)C2)OC(C)C1OC1OC(CO)C(O)C(O)C1O` (stereo not given in full): the TGI in the assay with DU-145 prostate, in the assay with KM12 colon, in the assay on LOX IMVI melanoma, with M14 melanoma, with MDA-MB-231 breast and in the assay on NCI-H226 lung was more than 100 µM each time. Besides, the TGI with SF-295 CNS, with SF-539 CNS, in the assay with SNB-75 CNS and with SW-620 colon was more than 100 µM in each case.
As to `CC(C)C1=C(O)C2=C(C(=O)C1=O)C1(C)CCCC(C)(C)C1C(O)C2OC=O` (stereo not given), the TGI came out at 19.1 µM in the assay with DU-145 prostate; 24.7 µM in the assay with KM12 colon; 11.6 µM in the assay with LOX IMVI melanoma; 29.1 µM in the assay on M14 melanoma; 22.5 µM in the assay on MDA-MB-231 breast; 20.2 µM with NCI-H226 lung. The TGI in the assay with SF-295 CNS turned out to be 29.3 µM; in the assay with SF-539 CNS, 31.5 µM; with SNB-75 CNS it was 23.7 µM; with SW-620 colon, 13.1 µM.
For `C(=C\c1ccccc1)/COc1ccccc1C(N1CCOCC1)n1nc2ccccc2n1` (stereo not given), the TGI with DU-145 prostate is 63.3 µM; with KM12 colon, 19.8 µM; in the assay with LOX IMVI melanoma, 13.5 µM; with M14 melanoma, 13.5 µM; in the assay on MDA-MB-231 breast, 15 µM; in the assay on NCI-H226 lung it was 28.7 µM. Also, the TGI was determined as 28.7 µM in the assay with SF-295 CNS, 6.62 µM with SF-539 CNS, 16.9 µM with SNB-75 CNS and 36.5 µM with SW-620 colon.
As for `CN(C)c1cccc2c1C(=O)C=CC21c2ccc(N(C)C)c3c(N(C)C)ccc(c23)C(c2ccccc2)C1c1ccccc1` (stereo not given), the TGI is more than 100 µM with DU-145 prostate; 31.3 µM in the assay on KM12 colon; 33.7 µM in the assay with LOX IMVI melanoma; 31.1 µM with M14 melanoma; 28.9 µM in the assay with MDA-MB-231 breast; 39.2 µM in the assay on NCI-H226 lung. Moreover, the TGI is 32.7 µM in the assay with SF-295 CNS, 26 µM in the assay on SF-539 CNS, 30.9 µM in the assay with SNB-75 CNS and 54 µM with SW-620 colon.
In the case of `CC(C)[Si](OC/C(=C/COC(C)(C)C)[C@H]1CC=C(C(=O)c2ccccc2N2CN(C)C(=O)N(C)C2)C1)(C(C)C)C(C)C`, the TGI turned out to be 29.9 µM in the assay on DU-145 prostate; 44.4 µM with KM12 colon; 4.06 µM with LOX IMVI melanoma; 27 µM with M14 melanoma; 26.6 µM in the assay on MDA-MB-231 breast; 28.9 µM in the assay on NCI-H226 lung. For the same molecule, the TGI was found to be 28.9 µM in the assay on SF-295 CNS, 17.8 µM in the assay on SF-539 CNS, 28.7 µM in the assay with SNB-75 CNS and 6.61 µM with SW-620 colon.
On to `O=[N+]([O-])c1ccc2c(c1)c(N=NC(=S)Nc1ccc(Cl)cc1)c(O)n2CN1CCOCC1`, for which the TGI was found to be 22.2 µM in the assay with DU-145 prostate; 24 µM in the assay with KM12 colon; 23.8 µM in the assay with LOX IMVI melanoma; 21.7 µM in the assay with M14 melanoma; 30.6 µM with MDA-MB-231 breast; 23.7 µM in the assay with NCI-H226 lung. Moreover, the TGI is 18.3 µM with SF-295 CNS, 26.4 µM with SF-539 CNS, 25.8 µM in the assay with SNB-75 CNS and 30.8 µM with SW-620 colon.
